Experiment [1] relates to Rodents. As to the kind of experiment: Forced swim test (FST) after microinjection. In kind it is in vivo. The following applies: acute microinjection, versus controls. The text has this:
(§1) This is also in the same direction as the FGF2 data, consistent with the fact that both FGF2 and NCAM interact with the FGF receptor.
(§2) These observations are nevertheless consistent with the conclusions drawn from the microinjection studies above.

Experiment [2] concerns Rodents. Nature of the experiment: Elevated plus maze (EPM) after microinjection. In kind it is in vivo. The following applies: for time in the center quadrant of EPM / time in the closed arms of EPM / time in the open arms of EPM: acute microinjection, versus controls.
Text: as §1, §2

In experiment [3] the test system is Sprague-Dawley rats. Nature of the experiment: Morris water maze in adults after early postnatal FGF2. In kind it is in vivo, rat. The conditions noted are these: FGF2 20 ng/g s.c. the day after birth, tested as adults. As to the method:
(§3) Methods. Sprague-Dawley rats were injected with either vehicle or FGF2 (20 ng/g, s.c.) the day after birth and sacrificed after Morris water maze testing as adults. We assessed changes in gene expression using both a candidate approach and a gene discovery approach with laser-capture microdissection of the dentate gyrus followed by microarray analyses.

Experiment [4] concerns hippocampal gene expression. As to the kind of experiment: Hippocampal gene expression in adults after early postnatal FGF2 (histochemical and RNA expression assays). In kind it is in vivo, rat. The conditions noted are these: adult rats, FGF2 20 ng/g s.c. the day after birth. As to the method:
as §3

Another experiment relates to rats. As to the kind of experiment: Elevated plus-maze (EPM) and light-dark (LD) anxiety test after chronic FGF2. The following applies: FGF2 5 ng/g i.p. every 48 hours for 3 weeks. Type of experiment: in vivo, rat. The procedure:
Anxiety disorders have a high comorbidity with other neuropsychiatric disorders including Major Depression (MD). […] Rats were placed into “high anxiety” (LR) or “low anxiety” (HR) groups based on their behavior in a variety of motor and behavioral tests. Both groups of animals were administered either FGF2 (5 ng/g) or vehicle by intraperitoneal injection every 48 hours for 3 weeks. One day after the last FGF2 injection, all animals were tested in the elevated plus-maze (EPM) and light-dark (LD) anxiety test.
The apparatus for the EPM test is constructed of black Plexiglass with […] (70 cm from the floor, 45 cm long, and 12 cm wide). Illumination is provided by a 40-watt desk lamp facing a wall and placed behind one of the closed arms. The scientists put the animal inside the system. Animals that are less anxious spend more time in the open arms whereas animals that are more anxious spend less time in the open arms.
The LD test is conducted in a 30×60×30-cm Plexiglas shuttle box with a translucent cover. Each box is divided into two equal-sized compartments by a wall with a 12 cm-wide open door. One compartment is painted white and brightly illuminated, and the other is painted black with very dim light. The time each rat spends in each compartment is monitored by rows of five photocells located 2.5 cm above the grid floor of each compartment. […]

In experiment [5] the test system is FGFR2 and FGFR3 exon IIIc:IIIb splice variant ratio. As to the kind of experiment: Real time RT-PCR of exon IIIc:IIIb splice variant ratio in frontal cortex. The conditions noted are these: FGF2 5 ng/g i.p. every 48 hours for three weeks, NS or S group, P>0.1. In kind it is in vivo, rat. The procedure:
Animals. Twenty-four male Sprague-Dawley rats weighing 220-250g were ordered from Charles River (Wilmington, Mass.) and remained undisturbed for one week to acclimatize to housing conditions. The animals were housed in pairs on a 12 h light-dark cycle (lights on 6:00 A.M.) with food and water available ad libitum. All experiments were conducted in accordance with the NIH Guide for the Care and Use of Animals and the University Committee on the Use and Care of Animals.
FGF2 injection treatments and chronic unpredictable stress (CUS) conditions. […]
Total RNA extraction. […] Using the Bioanalyzer's concentration readings, the samples were normalized to 25 ng/μL of total RNA per subject and stored at −80° C.
cDNA synthesis. cDNA was synthesized using the iScript cDNA Synthesis Kit (Bio-Rad, Hercules, Calif.). […] The double-stranded cDNA solutions were then analyzed for quality and concentration using Invitrogen's Quant-iT PicoGreen dsDNA kit. […] The fluorescently labeled samples were analyzed with a 1420 Victor^2 Multilabel Counter (EG&G Wallac, Wellesley, Mass.) using the basic Fluorescein protocol. […]
Real time RT-PCR primer design. […] Exon sequences were analyzed using NCBI's nucleotide and protein BLAST and were matched with their corresponding protein products within the receptor structures (FIG. 11). […]

Experiment [6] relates to Sprague-Dawley rats. Nature of the experiment: Forced swim testing after chronic FGF2. The conditions noted are these: chronic FGF2 administration. Type of experiment: in vivo, rat. The procedure:
FGF2 injection treatments and chronic unpredictable stress (CUS) conditions. Half of the rats (n=12) were administered vehicle (0.1M PBS with 100 μg/mL bovine serum albumin), and the other half (n=12) were administered human recombinant FGF2 dissolved in vehicle in 5 ng/g dosages (Sigma, St. Louis, Mo.) every 48 hours for three weeks. All treatments were injected intra-peritonealy. During the same three week period as the FGF2 treatments, the vehicle group was either handled (n=6) or exposed to CUS (n=6). Likewise, the FGF2 injected group was either handled (n=6) or exposed to CUS (n=6). The animals were exposed to the following chronic unpredictable stressors (described in Isgor et al. (2004)): ether (30 s), cold (2 h), noise (15 m), isolation (24 h), or restraint (2 h). The stressors were randomized to avoid habituation; sessions occurred once each day in either the morning or afternoon. The 2×2 (condition by treatment) design divided the subjects into nonstressed/vehicle (NS/V), nonstressed/FGF2 injection (NS/F), stressed/vehicle (S/V), and stressed/FGF2 injection (S/F) groups.
Forced swim testing. To test for possible FGF2 injection effects on anti-depressant behavior for other studies, all animals were subjected to forced swim testing according to Lucki (1997) 24 h after the termination of the FGF2 treatments and CUS conditions.

As for EVYVVAENQQGKSKA [NCAM], in the experiment with Rodents [1], the “depression-like behavior (FST)” value is “less depression-like behavior” and the “immobility in FST” value is recorded as “less immobility”. In the experiment with Rodents [2], the “time in the center quadrant of EPM” value is given as “significantly less time”, the “time in the closed arms of EPM” value is reported as “more time (although not signficantly more time)” and the “time in the open arms of EPM” value was “less time”.

Consider “FGF2: human recombinant FGF2 (Sigma), fibroblast growth factor 2”, for which, in the experiment on Rodents [1], the “depression-like behavior (FST)” value was “less depression-like behavior”, the “immobility in FST” value was “less immobility” and the “swimming in FST” value is given as “more swimming”. Further, in the experiment on Rodents [2] (acute injection), the “anxiety-like behavior (EPM)” value was “increased”. Moreover, in the experiment on Rodents [2], the “time in the closed arms of EPM” value was “significantly more time” and the “time in the open arms of EPM” value is reported as “less time”. In addition, the “time to find a hidden platform in Morris Water maze test (average)” value in the experiment on Sprague-Dawley rats [3] was 20 s. The “performance in learning and memory tests” value in the experiment with Sprague-Dawley rats [3] (versus vehicle) is “significantly better”. In experiment [4], the “expression of CCK” value was “increased”, the “expression of GAP-43” value was “increased”, the “expression of NCAM” value is listed as “decreased” and the “expression of Rgs4” value is on record as “increased”. In addition, in experiment [4], the “expression of SST” value is recorded as “increased”, the “expression of Vgf” value is on record as “increased” and the “expression of trkB” value is reported as “increased”. Also, in the experiment with rats, the anxiety versus vehicle result is reported as “less anxious”. Also, the “anxiety-reducing effects in innately more anxious (LR) rats” value in the experiment with rats (LR versus HR) is recorded as “more pronounced”. The “effect on exon IIIc:IIIb ratio” value in experiment [5] was “did not alter”. Further, the depression-like behavior result in the experiment on Sprague-Dawley rats [6] is given as “decreases depression-like behavior”.

In the case of “HFKDPKRLY [FGF system peptide inhibitor]”, in the experiment on Rodents [1], the “climbing in FST” value is recorded as “significantly less climbing”, the “depression-like behavior (FST)” value was “increased depression-like behavior”, the “immobility in FST” value is listed as “more immobility” and the “swimming in FST” value is on record as “less swimming”. Moreover, in the experiment with Rodents [2], the “time in the center quadrant of EPM” value was “significantly more time”, the “time in the closed arms of EPM” value is “less time” and the “time in the open arms of EPM” value is on record as “equal time”.

The values are drawn from patent US20110092433A1, “FGF9-RELATED METHODS FOR TREATING ANXIETY” (THE BOARD OF TRUSTEES OF THE LELAND STANFORD JUNIOR …, priority 2007, published 2011).
